Assay results reported in the CheMixHub viscosity set.

Assay: xn = mol fraction of the nth substance listed

OCCOCCOCCO + O
Settings | viscosity [mPa·s]
293.15 K, 100 kPa, x2 = 0.05 | 46.03
293.15 K, 100 kPa, x2 = 0.094 | 44.8
298.15 K, 100 kPa, x2 = 0.014 | 37.14
298.15 K, 100 kPa, x2 = 0.094 | 34.66
298.15 K, 101.33 kPa, x1 = 0.0824 | 3.65
298.15 K, 101.33 kPa, x1 = 0.1678 | 8.7
298.15 K, 101.33 kPa, x1 = 0.35 | 19.77
303.15 K, 100 kPa, x2 = 0.05 | 28.19
303.15 K, 100 kPa, x2 = 0.094 | 27.25
303.15 K, 100 kPa, x2 = 0.112 | 27.95
303.15 K, 101 kPa, x1 = 0.05023 | 2.114
303.15 K, 101 kPa, x1 = 0.1004 | 4.102
303.15 K, 101 kPa, x1 = 0.1518 | 6.604
303.15 K, 101 kPa, x1 = 0.2006 | 9.27
303.15 K, 101 kPa, x1 = 0.2528 | 11.91
303.15 K, 101 kPa, x1 = 0.2995 | 14.77
303.15 K, 101 kPa, x1 = 0.3928 | 18.53
303.15 K, 101 kPa, x1 = 0.5013 | 21.84
303.15 K, 101 kPa, x1 = 0.5995 | 24.34
303.15 K, 101 kPa, x1 = 0.6648 | 25.69
303.15 K, 101 kPa, x1 = 0.7981 | 27.13
303.15 K, 101 kPa, x1 = 0.8445 | 27.86
303.15 K, 101 kPa, x1 = 0.8998 | 28.37
303.15 K, 101 kPa, x1 = 0.954 | 28.74
303.15 K, 101.33 kPa, x1 = 0.0004 | 0.781
303.15 K, 101.33 kPa, x1 = 0.0008 | 0.788
303.15 K, 101.33 kPa, x1 = 0.0014 | 0.798
303.15 K, 101.33 kPa, x1 = 0.0024 | 0.82
303.15 K, 101.33 kPa, x1 = 0.0056 | 0.875
303.15 K, 101.33 kPa, x1 = 0.011 | 0.986
303.15 K, 101.33 kPa, x1 = 0.0317 | 1.48
303.15 K, 101.33 kPa, x1 = 0.0563 | 2.254
303.15 K, 101.33 kPa, x1 = 0.0988 | 4.058
303.15 K, 101.33 kPa, x1 = 0.1954 | 8.931
303.15 K, 101.33 kPa, x1 = 0.2932 | 14.1
303.15 K, 101.33 kPa, x1 = 0.3871 | 18.23
303.15 K, 101.33 kPa, x1 = 0.5032 | 22.21
303.15 K, 101.33 kPa, x1 = 0.5991 | 24.2
303.15 K, 101.33 kPa, x1 = 0.6914 | 26.06
303.15 K, 101.33 kPa, x1 = 0.7941 | 27.17
308.15 K, 100 kPa, x2 = 0.05 | 22.55
308.15 K, 100 kPa, x2 = 0.094 | 21.88
308.15 K, 100 kPa, x2 = 0.112 | 22.44
308.15 K, 101 kPa, x1 = 0.05023 | 1.848
308.15 K, 101 kPa, x1 = 0.1004 | 3.491
308.15 K, 101 kPa, x1 = 0.1518 | 5.543
308.15 K, 101 kPa, x1 = 0.2006 | 7.668
308.15 K, 101 kPa, x1 = 0.2528 | 9.722
308.15 K, 101 kPa, x1 = 0.2995 | 11.99
308.15 K, 101 kPa, x1 = 0.3928 | 14.94
308.15 K, 101 kPa, x1 = 0.5013 | 17.51
308.15 K, 101 kPa, x1 = 0.5995 | 19.48
308.15 K, 101 kPa, x1 = 0.6648 | 20.58
308.15 K, 101 kPa, x1 = 0.7981 | 21.8
308.15 K, 101 kPa, x1 = 0.8445 | 22.32
308.15 K, 101 kPa, x1 = 0.8998 | 22.65
308.15 K, 101.33 kPa, x1 = 0.0004 | 0.707
308.15 K, 101.33 kPa, x1 = 0.0008 | 0.714
308.15 K, 101.33 kPa, x1 = 0.0014 | 0.725
308.15 K, 101.33 kPa, x1 = 0.0024 | 0.736
308.15 K, 101.33 kPa, x1 = 0.0056 | 0.787
308.15 K, 101.33 kPa, x1 = 0.011 | 0.877
308.15 K, 101.33 kPa, x1 = 0.0317 | 1.298
308.15 K, 101.33 kPa, x1 = 0.0563 | 1.934
308.15 K, 101.33 kPa, x1 = 0.0988 | 3.33
308.15 K, 101.33 kPa, x1 = 0.1954 | 7.273
308.15 K, 101.33 kPa, x1 = 0.2932 | 11.27
308.15 K, 101.33 kPa, x1 = 0.3871 | 14.47
313.15 K, 100 kPa, x2 = 0.014 | 19.23
313.15 K, 100 kPa, x2 = 0.05 | 18.39
313.15 K, 100 kPa, x2 = 0.094 | 17.83
313.15 K, 101 kPa, x1 = 0.05023 | 1.618
313.15 K, 101 kPa, x1 = 0.1004 | 3.012
313.15 K, 101 kPa, x1 = 0.1518 | 4.689
313.15 K, 101 kPa, x1 = 0.2006 | 6.418
313.15 K, 101 kPa, x1 = 0.2528 | 8.113
313.15 K, 101 kPa, x1 = 0.2995 | 9.888
313.15 K, 101 kPa, x1 = 0.3928 | 12.22
313.15 K, 101 kPa, x1 = 0.5013 | 14.27
313.15 K, 101 kPa, x1 = 0.5995 | 15.84
313.15 K, 101 kPa, x1 = 0.6648 | 16.75
313.15 K, 101 kPa, x1 = 0.7981 | 17.67
313.15 K, 101 kPa, x1 = 0.8445 | 18.12
313.15 K, 101 kPa, x1 = 0.8998 | 18.44
313.15 K, 101 kPa, x1 = 0.954 | 18.69
318.15 K, 100 kPa, x2 = 0.014 | 15.91
318.15 K, 100 kPa, x2 = 0.05 | 15.2
318.15 K, 100 kPa, x2 = 0.094 | 14.73
318.15 K, 100 kPa, x2 = 0.112 | 15.13
318.15 K, 101 kPa, x1 = 0.05023 | 1.455
318.15 K, 101 kPa, x1 = 0.1004 | 2.621
318.15 K, 101 kPa, x1 = 0.1518 | 4.011
318.15 K, 101 kPa, x1 = 0.2006 | 5.421
318.15 K, 101 kPa, x1 = 0.2528 | 6.753
318.15 K, 101 kPa, x1 = 0.2995 | 8.235
318.15 K, 101 kPa, x1 = 0.3928 | 10.07
318.15 K, 101 kPa, x1 = 0.5013 | 11.79
318.15 K, 101 kPa, x1 = 0.5995 | 13.02
318.15 K, 101 kPa, x1 = 0.6648 | 13.73
318.15 K, 101 kPa, x1 = 0.7981 | 14.53
318.15 K, 101 kPa, x1 = 0.8445 | 14.92
318.15 K, 101 kPa, x1 = 0.8998 | 15.2
318.15 K, 101 kPa, x1 = 0.954 | 15.4
323.15 K, 100 kPa, x2 = 0.014 | 13.33
323.15 K, 100 kPa, x2 = 0.05 | 12.7
323.15 K, 100 kPa, x2 = 0.094 | 12.32
323.15 K, 100 kPa, x2 = 0.112 | 12.64
323.15 K, 101 kPa, x1 = 0.05023 | 1.295
323.15 K, 101 kPa, x1 = 0.1004 | 2.296
323.15 K, 101 kPa, x1 = 0.1518 | 3.473
323.15 K, 101 kPa, x1 = 0.2006 | 4.63
323.15 K, 101 kPa, x1 = 0.2528 | 5.724
323.15 K, 101 kPa, x1 = 0.2995 | 6.927
323.15 K, 101 kPa, x1 = 0.3928 | 8.441
323.15 K, 101 kPa, x1 = 0.5013 | 9.827
323.15 K, 101 kPa, x1 = 0.5995 | 10.84
323.15 K, 101 kPa, x1 = 0.6648 | 11.45
323.15 K, 101 kPa, x1 = 0.7981 | 12.09
323.15 K, 101 kPa, x1 = 0.8445 | 12.41
323.15 K, 101 kPa, x1 = 0.8998 | 12.64
323.15 K, 101 kPa, x1 = 0.954 | 12.8
